Experiments:
athletes = settings: about 20-35 g/day; cited from earlier work
[1] = Titration of DPBS and DMEM/F12 + 10% FBS with different carbonate sources (pH effect); type: physicochemical; settings: for Amount in ml that was needed to reach pH 8: 73.5 mM carbonate suspension or solution
Description: Two commercial media, Dulbecco's phosphate-buffered saline (DPBS) and Gibco Dulbecco's Modified Eagle Medium: Nutrient Mixture F-12 (DMEM/F12), with 10% Fetal Bovine Serum (FBS) were used to evaluate the pH effect of different sources of calcium carbonate. DPBS is Dulbecco's Phosphate Buffered Saline, generally serves as an isotonic saline solution or buffer for washing cells and tissues and intends to provide a buffer system for maintaining cell culture media in the physiological range of 7.2-7.6.
DMEM/F12 is a widely used basal medium for supporting the growth of many different mammalian cells. DMEM/F12 medium+10% FBS was used to maximally mimic the environment of the body fluids.
Three sources of calcium carbonate were used ACC, Sodium bicarbonate (SBC) and Crystalline Calcium Carbonate (CCC).
The final composition comprised 73.53 mM of CaCO3 in the water suspension.
The addition was done until a pH plateau was accomplished or the level of the solution reached the end of the capacity of the used container (˜130 ml).

[2] = chronic ingestion, 300 to 500 mg/kg; Lopes-Silva; cited from earlier work
[3] = human performance; Requena 2005; cited from earlier work
[4] = oral administration of 300 mg/kg; Zajac 2009; cited from earlier work
[5] = supplementation; Sounders 2016; cited from earlier work

Row | SMILES | reported adverse effects (athletes) | capability to reach higher pH levels ([1]; SBC compared with CCC) | Final pH ([1]; added to DMEM/F12 + 10% FBS) | Amount in ml that was needed to reach pH 8 ([1]; added to DMEM/F12 + 10% FBS) | Final pH ([1]; added to DPBS) | Amount in ml that was needed to reach pH 8 ([1]; added to DPBS) | Wingate test peak or mean power [2] | doses for which a significant effect was shown [3] | training intensity and swimming performance [4] | effect on exercise [5]
1 | O=C([O-])O.[Na+] [SBC, Sodium bicarbonate] | stomach aches and discomfort, nausea, and vomiting | not significantly different | 8.3 | 77 ml | 8.30 | 76.4 ml | chronic ingestion of NaHCO3 did | above 300 mg/kg | can increase training intensity and swimming performance | 
2 | NCCC(=O)O [β-alanine] |  |  |  |  |  |  |  |  |  | significant overall ergogenic effect
3 | O=C([O-])[O-].[Ca+2] [CCC, Crystalline Calcium Carbonate] |  |  | 7.90 | 80 ml | 8 | 65 ml |  |  |  | 
